From patent publication US12570655B2, “Cysteine covalent modifiers of AKT1 and uses thereof” (Terremoto Biosciences, Inc., priority 2023, dated 2026)
Like-named read-outs stand apart in the source and are kept apart here.

How the values were obtained:
Format in all cases: cell-based
[1] = test system: LAPC4 prostate cancer cells; test: Antiproliferative effects in LAPC4 cells (CellTiter Glo); details: LAPC4 cells (AKT1 E17K allele), read-out: LAPC4 proliferation IC50
Procedure: Antiproliferative Effects in LAPC4 Cells.
LAPC4 prostate cancer cells (Klein, K. A. et al. Nat Med 1997, 3, 402-408), which express the AKT1 E17K allele, were grown in IMDM media (Hyclone) supplemented with 12% FBS+1% P/S. To assess compound effects on growth, 1,000 cells/well were seeded in 384 well assay plates, incubated with compound dilutions dissolved in DMSO. After 72 h, intracellular ATP content was assessed with CellTiter Glo reagent (Promega) according to the manufacturer's instructions. IC50 values were calculated by fitting luminescence values to a log(inhibitor) vs. response Hill equation.

AKT2 = biological target: T1, AKT2 (Homo sapiens, UniProt P31751); test: Live cell AKT2 target engagement by NanoBRET competitive probe displacement; details: HEK293 cells transfected with kinase-NanoLuciferase fusion, 2 h at 37° C.
T1 construct: expressed in transfected cells; host or cells: HEK293
Procedure: (§1) Determining Live Cell AKT1 E17K, AKT1 WT, and AKT2 Target Engagement by NanoBRET Competitive Probe Displacement.
(§2) Live cell target engagement assays were performed as described (Vasta, J. D. et al. Cell Chem Biol 2018, 25(11), 206-214). Briefly, HEK293 cells were transfected with plasmids encoding kinase-NanoLuciferase fusion proteins overnight. Cells were then treated with serial dilutions of compound and an ˜EC50 concentration of fluorescently-tagged ATP-competitive tracer (Promega). After incubation for 2 h at 37° C., luciferase substrate and extracellular luciferase inhibitor were added to all wells, and luminescent intensity at 460 nm and 600 nm were measured on a multimode plate-reader. The ratio of E600/E460 was calculated to give the tracer engagement signal (BRET). IC50 values were calculated by fitting BRET values to a log(inhibitor) vs. response Hill equation.

AKT1 E17K = biological target: T2, AKT1 E17K (Homo sapiens, UniProt P31749, E17K); test: Live cell AKT1 E17K target engagement by NanoBRET competitive probe displacement; details: HEK293 cells transfected with kinase-NanoLuciferase fusion, 2 h at 37° C.
T2 construct: expressed in transfected cells; host or cells: HEK293
Procedure: as §1, §2

AKT1 WT = biological target: T3, AKT1 WT (Homo sapiens, UniProt P31749); test: Live cell AKT1 WT target engagement by NanoBRET competitive probe displacement; details: HEK293 cells transfected with kinase-NanoLuciferase fusion, 2 h at 37° C.
T3 construct: expressed in transfected cells; host or cells: HEK293
Procedure: as §1, §2

T2 sequence (P31749 whole entry E17K, the tested form may be a part): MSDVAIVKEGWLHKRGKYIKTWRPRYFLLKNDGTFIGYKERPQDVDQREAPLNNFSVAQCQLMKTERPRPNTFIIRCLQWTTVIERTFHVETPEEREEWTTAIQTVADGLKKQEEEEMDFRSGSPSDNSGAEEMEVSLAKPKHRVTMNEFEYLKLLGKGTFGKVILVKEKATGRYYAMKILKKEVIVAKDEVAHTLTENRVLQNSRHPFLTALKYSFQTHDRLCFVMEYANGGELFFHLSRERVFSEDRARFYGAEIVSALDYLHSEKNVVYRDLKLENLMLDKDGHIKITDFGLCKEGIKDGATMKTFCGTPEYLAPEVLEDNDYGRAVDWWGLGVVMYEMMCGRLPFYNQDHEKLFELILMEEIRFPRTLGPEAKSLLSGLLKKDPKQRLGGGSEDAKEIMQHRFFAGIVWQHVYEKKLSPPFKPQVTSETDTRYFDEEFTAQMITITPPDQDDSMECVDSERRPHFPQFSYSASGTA
T3 sequence (P31749 whole entry, the tested form may be a part): as the sequence (P31749 whole entry E17K, the tested form may be a part) above, with K17E counted along it
T1 sequence (P31751 whole entry, the tested form may be a part): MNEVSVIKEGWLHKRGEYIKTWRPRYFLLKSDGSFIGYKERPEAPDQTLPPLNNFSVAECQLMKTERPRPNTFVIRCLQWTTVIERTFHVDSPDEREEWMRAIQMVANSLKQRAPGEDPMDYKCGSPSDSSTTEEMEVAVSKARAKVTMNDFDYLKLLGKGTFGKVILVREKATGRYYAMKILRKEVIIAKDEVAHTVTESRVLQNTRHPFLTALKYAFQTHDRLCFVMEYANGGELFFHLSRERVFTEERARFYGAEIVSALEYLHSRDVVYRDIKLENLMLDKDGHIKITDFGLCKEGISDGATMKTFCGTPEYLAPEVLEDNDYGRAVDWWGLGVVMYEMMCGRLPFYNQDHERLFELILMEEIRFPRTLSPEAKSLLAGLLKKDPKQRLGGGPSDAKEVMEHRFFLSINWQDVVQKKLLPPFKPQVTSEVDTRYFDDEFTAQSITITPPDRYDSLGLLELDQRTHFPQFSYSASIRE

IC50 ([1]; 72 h) [µM] | IC50 (AKT2) [µM] | IC50 (AKT1 E17K) [µM] | IC50 ([1]; Homo sapiens, LAPC4, 72 h) [µM] | IC50 (AKT1 WT) [µM] | SMILES
0.51 | 0.211 | 0.0509 |  |  | C=CC(=O)N1C[C@H]2COC[C@@H](C1)C2N[C@H]1CCc2cc(-n3c(-c4cccnc4N)nc4ccc(C5CC5)nc43)ccc21 (single isomer, unassigned) [Example 172, 1-((1R,5S,9*)-9-(((S)-5-(2-(2-aminopyridin-3-yl)-5-cyclopropyl-3H-imidazo[4,5-b]pyridin-3-yl)-2,3-dihydro-1H-inden-1-yl)amino)-3-oxa-7-azabicyclo[3.3.1]nonan-7-yl)prop-2-en-1-one]
1.76 | 0.874 | 0.0322 |  |  | C=CC(=O)N1CCC(N[C@@H]2c3ccc(-n4c(-c5cccnc5N)nc5ccc(C6CC6)nc54)cc3CC2F)CC1 (single isomer, unassigned) [Example 203, 1-(4-(((1R,2*)-5-(2-(2-aminopyridin-3-yl)-5-cyclopropyl-3H-imidazo[4,5-b]pyridin-3-yl)-2-fluoro-2,3-dihydro-1H-inden-1-yl)amino)piperidin-1-yl)prop-2-en-1-one]
 | 0.143 | 0.0126 | 0.614 |  | C=CC(=O)N1CCC(N[C@@H]2c3ccc(-n4c(-c5ccccc5)nc5ccc(-n6cccn6)nc54)cc3CC2F)CC1 (single isomer, unassigned) [Example 249, 1-(4-(((1R,2*)-2-fluoro-5-(2-phenyl-5-(1H-pyrazol-1-yl)-3H-imidazo[4,5-b]pyridin-3-yl)-2,3-dihydro-1H-inden-1-yl)amino)piperidin-1-yl)prop-2-en-1-one]
0.559 | 0.134 | 0.0147 |  |  | C=CC(=O)N1CCC(N[C@@H]2c3ccc(-n4c(-c5ccccc5)nc5ccc(-n6cccn6)nc54)cc3CC2F)CC1 (single isomer, unassigned) [Example 250, 1-(4-(((1R,2*)-2-fluoro-5-(2-phenyl-5-(1H-pyrazol-1-yl)-3H-imidazo[4,5-b]pyridin-3-yl)-2,3-dihydro-1H-inden-1-yl)amino)piperidin-1-yl)prop-2-en-1-one]
0.54 | 0.112 | 0.0192 |  |  | C=CC(=O)N1CCC(N[C@@H]2c3ccc(-n4c(-c5ccccc5F)nc5ccc(-n6cccn6)nc54)cc3CC2F)C[C@H]1C (single isomer, unassigned) [Example 316, 1-((2R,4*)-4-(((1R,2*)-2-fluoro-5-(2-(2-fluorophenyl)-5-(1H-pyrazol-1-yl)-3H-imidazo[4,5-b]pyridin-3-yl)-2,3-dihydro-1H-inden-1-yl)amino)-2-methylpiperidin-1-yl)prop-2-en-1-one]
0.626 | 0.111 | 0.0297 |  |  | C=CC(=O)N1CCC(N[C@@H]2c3ccc(-n4c(-c5ccccc5F)nc5ccc(-n6cccn6)nc54)cc3CC2F)C[C@H]1C (single isomer, unassigned) [Example 318, 1-((2R,4*)-4-(((1R,2*)-2-fluoro-5-(2-(2-fluorophenyl)-5-(1H-pyrazol-1-yl)-3H-imidazo[4,5-b]pyridin-3-yl)-2,3-dihydro-1H-inden-1-yl)amino)-2-methylpiperidin-1-yl)prop-2-en-1-one]
 | 0.0903 | 0.0177 |  |  | C=CC(=O)N1CCC(N[C@@H]2c3ccc(-n4c(-c5ccccc5)nc5ccc(-n6cccn6)nc54)cc3CC2F)CC1C(F)F (single isomer, unassigned) [Example 328, 1-((2*,4*)-2-(difluoromethyl)-4-(((1R,2*)-2-fluoro-5-(2-phenyl-5-(1H-pyrazol-1-yl)-3H-imidazo[4,5-b]pyridin-3-yl)-2,3-dihydro-1H-inden-1-yl)amino)piperidin-1-yl)prop-2-en-1-one]
 | 0.0788 | 0.0327 |  |  | C=CC(=O)N1CCC(N[C@H]2CCc3cc(-n4c(-c5cccnc5N)nc5ccc(-n6cccn6)nc54)ccc32)CC1CC#N (single isomer, unassigned) [Example 339, 2-((2*,4*)-1-acryloyl-4-(((S)-5-(2-(2-aminopyridin-3-yl)-5-(1H-pyrazol-1-yl)-3H-imidazo[4,5-b]pyridin-3-yl)-2,3-dihydro-1H-inden-1-yl)amino)piperidin-2-yl)acetonitrile]
 | 0.194 | 0.0239 |  |  | C=CC(=O)N1CCC(N[C@@H]2c3c(F)cc(-n4c(-c5cccnc5N)nc5ccc(-n6cccn6)nc54)cc3CC2F)CC1 (single isomer, unassigned) [Example 342, 1-(4-(((1R,2*)-5-(2-(2-aminopyridin-3-yl)-5-(1H-pyrazol-1-yl)-3H-imidazo[4,5-b]pyridin-3-yl)-2,7-difluoro-2,3-dihydro-1H-inden-1-yl)amino)piperidin-1-yl)prop-2-en-1-one]
 |  | 0.00846 | 0.089 | 0.0655 | C=CC(=O)N1CCN(CC2CCc3cc(-n4c(-c5cccnc5N)nc5ccc(-n6cccn6)nc54)ccc32)CC1 (centres unmarked) [Example 174, 1-(4-((5-(2-(2-aminopyridin-3-yl)-5-(1H-pyrazol-1-yl)-3H-imidazo[4,5-b]pyridin-3-yl)-2,3-dihydro-1H-inden-1-yl)methyl)piperazin-1-yl)prop-2-en-1-one]
 |  | 0.0994 | 1.32 | 0.735 | C=CC(=O)N1CCC(N[C@H]2CCc3cc(-n4c(-c5cccnc5N)nc5cc(-c6cccnc6)cnc54)ccc32)CC1 [Example 190, (S)-1-(4-((5-(2-(2-aminopyridin-3-yl)-6-(pyridin-3-yl)-3H-imidazo[4,5-b]pyridin-3-yl)-2,3-dihydro-1H-inden-1-yl)amino)piperidin-1-yl)prop-2-en-1-one]
 |  | 0.221 | 3.37 | 1.25 | C=CC(=O)N1CCC(N[C@H]2CCc3cc(-n4c(-c5cccnc5N)nc5cc(-c6ccncc6)cnc54)ccc32)CC1 [Example 191, (S)-1-(4-((5-(2-(2-aminopyridin-3-yl)-6-(pyridin-4-yl)-3H-imidazo[4,5-b]pyridin-3-yl)-2,3-dihydro-1H-inden-1-yl)amino)piperidin-1-yl)prop-2-en-1-one]
 |  | 0.321 | 3.47 | 1.87 | C=CC(=O)N1CCC(N[C@H]2CCc3cc(-n4c(-c5cccnc5N)nc5cc(-n6cccn6)cnc54)ccc32)CC1 [Example 217, 1-(4-{[(1S)-5-[2-(2-aminopyridin-3-yl)-6-(pyrazol-1-yl)imidazo[4,5-b]pyridin-3-yl]-2,3-dihydro-1H-inden-1-yl]amino}piperidin-1-yl)prop-2-en-1-one]
 |  | 0.0126 | 0.0658 | 0.0515 | C=CC(=O)N1CCc2cccc(C(=O)N[C@H]3CCc4cc(-n5c(-c6cccnc6N)nc6ccc(-n7cccn7)nc65)ccc43)c2C1 [Example 235, (S)-2-acryloyl-N-(5-(2-(2-aminopyridin-3-yl)-5-(1H-pyrazol-1-yl)-3H-imidazo[4,5-b]pyridin-3-yl)-2,3-dihydro-1H-inden-1-yl)-1,2,3,4-tetrahydroisoquinoline-8-carboxamide]
 |  | 0.0304 | 0.756 | 1.43 | C=CC(=O)N1CCC(N[C@H]2CCc3cc(-n4c(-c5cccnc5N)nc5ccc(C(C)C)nc54)ccc32)CC1 [Example 242, 1-(4-{[(1S)-5-[2-(2-aminopyridin-3-yl)-5-isopropylimidazo[4,5-b]pyridin-3-yl]-2,3-dihydro-1H-inden-1-yl]amino}piperidin-1-yl)prop-2-en-1-one]
 |  | 0.247 | 5.39 | 2.12 | C=CC(=O)N1CCC(N[C@H]2CCc3cc(-n4c(-c5cccnc5N)nc5cc(-c6ccccn6)cnc54)ccc32)CC1 [Example 269, 1-(4-{[(1S)-5-[2-(2-aminopyridin-3-yl)-6-(pyridin-2-yl)imidazo[4,5-b]pyridin-3-yl]-2,3-dihydro-1H-inden-1-yl]amino}piperidin-1-yl)prop-2-en-1-one]
 |  | 0.00937 | 0.0179 | 0.0235 | C=CC(=O)N1CCC(N[C@@H]2CCc3cc(-n4c(-c5cccnc5N)nc5ccc(-n6cccn6)nc54)ccc3C2)CC1 [Example 295, 1-(4-{[(2R)-6-[2-(2-aminopyridin-3-yl)-5-(pyrazol-1-yl)imidazo[4,5-b]pyridin-3-yl]-1,2,3,4-tetrahydronaphthalen-2-yl]amino}piperidin-1-yl)prop-2-en-1-one]

SMILES | IC50 ([1]; 72 h) [µM] | IC50 (AKT2) [µM] | IC50 (AKT1 E17K) [µM] | IC50 ([1]; Homo sapiens, LAPC4, 72 h) [µM] | IC50 (AKT1 WT) [µM]
C=CC(=O)N1CCC(N[C@@H]2c3ccc(-n4c(-c5ccccc5)nc5ccc(-n6ccc(F)n6)nc54)cc3CC2F)CC1 (stereo partly drawn) [Example 332, 1-(4-(((1R,2*)-2-fluoro-5-(5-(3-fluoro-1H-pyrazol-1-yl)-2-phenyl-3H-imidazo[4,5-b]pyridin-3-yl)-2,3-dihydro-1H-inden-1-yl)amino)piperidin-1-yl)prop-2-en-1-one] |  | 0.481 | 0.0279 |  | 
